From patent US20100004234A1, “SPECIFIC KINASE INHIBITORS” (Kosan Biosciences Incorporated, priority 2004, published 2010)

Columns and labels:
Test in all cases: Kinase panel, residual activity
Assay type in all cases: biochemical
Settings in all cases: read-out: Percent residual activity
Syk(h) = Syk(h) (Homo sapiens, UniProt P43405)
Method: (§1) In this panel of 124 kinases, 18 of the 19 kinases identified as having an active site cysteine were inhibited to some extent by hypothemycin at a concentration of 0.2 μM and/or 2 μM.

MINK(h) = MINK(h) (Homo sapiens, UniProt Q8N4C8)
Method: as §1

Rsk3(h) = Rsk3(h) (Homo sapiens, UniProt Q15349)
Method: as §1

NEK7(h) = NEK7(h) (Homo sapiens, UniProt Q8TDX7)
Chain of NEK7(h) (Q8TDX7 whole entry): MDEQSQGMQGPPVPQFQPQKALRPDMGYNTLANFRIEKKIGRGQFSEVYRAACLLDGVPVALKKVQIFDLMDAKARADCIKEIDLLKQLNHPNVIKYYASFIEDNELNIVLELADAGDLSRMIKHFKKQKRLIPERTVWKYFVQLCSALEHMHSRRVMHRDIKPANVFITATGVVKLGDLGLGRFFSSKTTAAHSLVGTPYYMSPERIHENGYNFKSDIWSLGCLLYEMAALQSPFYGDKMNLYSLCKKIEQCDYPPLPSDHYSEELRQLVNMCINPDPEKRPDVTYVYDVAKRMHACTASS
Method: as §1

Abl(T315I)(h) = Abl(T315I)(h) (Homo sapiens, UniProt P00519, T315I)
Method: as §1

ErbB4(h) = ErbB4(h) (Homo sapiens, UniProt Q15303)
Method: as §1

Abl(h) = Abl(h) (Homo sapiens, UniProt P00519)
Method: as §1

PKCα(h) = PKCα(h) (Homo sapiens, UniProt P17252)
Method: as §1

PDGFRβ(h) = PDGFRβ(h) (Homo sapiens, UniProt P09619)
Chain of PDGFRβ(h) (P09619 33-1106): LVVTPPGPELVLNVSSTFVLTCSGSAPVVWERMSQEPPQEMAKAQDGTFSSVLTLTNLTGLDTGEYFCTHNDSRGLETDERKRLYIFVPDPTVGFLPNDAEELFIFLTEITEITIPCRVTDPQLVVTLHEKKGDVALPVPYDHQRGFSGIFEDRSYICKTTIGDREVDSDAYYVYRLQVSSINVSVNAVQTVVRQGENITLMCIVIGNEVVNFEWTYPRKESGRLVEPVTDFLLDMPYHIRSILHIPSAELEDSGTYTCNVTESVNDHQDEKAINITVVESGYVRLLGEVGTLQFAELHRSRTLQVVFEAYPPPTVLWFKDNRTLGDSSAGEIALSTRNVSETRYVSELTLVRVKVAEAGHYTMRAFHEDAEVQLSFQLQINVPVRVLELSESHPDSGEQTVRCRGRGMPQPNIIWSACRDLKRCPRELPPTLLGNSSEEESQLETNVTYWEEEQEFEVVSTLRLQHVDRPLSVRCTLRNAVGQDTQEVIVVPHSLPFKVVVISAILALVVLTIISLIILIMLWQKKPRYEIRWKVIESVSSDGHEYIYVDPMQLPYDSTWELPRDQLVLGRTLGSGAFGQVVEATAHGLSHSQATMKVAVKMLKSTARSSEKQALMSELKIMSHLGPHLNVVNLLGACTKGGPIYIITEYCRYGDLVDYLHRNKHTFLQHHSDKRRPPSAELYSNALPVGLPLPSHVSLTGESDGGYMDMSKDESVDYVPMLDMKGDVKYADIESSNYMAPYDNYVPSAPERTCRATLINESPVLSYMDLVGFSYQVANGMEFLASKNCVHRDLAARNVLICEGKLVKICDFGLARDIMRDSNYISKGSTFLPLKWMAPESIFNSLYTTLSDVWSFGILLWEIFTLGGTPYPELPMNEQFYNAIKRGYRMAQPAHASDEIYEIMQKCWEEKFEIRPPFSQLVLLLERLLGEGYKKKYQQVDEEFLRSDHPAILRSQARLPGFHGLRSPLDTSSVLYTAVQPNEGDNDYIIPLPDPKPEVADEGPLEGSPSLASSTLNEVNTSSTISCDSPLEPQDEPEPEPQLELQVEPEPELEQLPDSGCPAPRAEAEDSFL
Method: as §1

CDK2/cyclinE(h) = CDK2/cyclinE(h) (Homo sapiens, UniProt P24941)
Method: as §1

PKA(h) = PKA(h) (Homo sapiens, UniProt P17612)
Method: as §1

Arg(h) = Arg(h) (Homo sapiens, UniProt P42684)
Method: as §1

Fes(h) = Fes(h) (Homo sapiens, UniProt P07332)
Method: as §1

GSK3β(h) = GSK3β(h) (Homo sapiens, UniProt P49841)
Chain of GSK3β(h) (P49841 whole entry): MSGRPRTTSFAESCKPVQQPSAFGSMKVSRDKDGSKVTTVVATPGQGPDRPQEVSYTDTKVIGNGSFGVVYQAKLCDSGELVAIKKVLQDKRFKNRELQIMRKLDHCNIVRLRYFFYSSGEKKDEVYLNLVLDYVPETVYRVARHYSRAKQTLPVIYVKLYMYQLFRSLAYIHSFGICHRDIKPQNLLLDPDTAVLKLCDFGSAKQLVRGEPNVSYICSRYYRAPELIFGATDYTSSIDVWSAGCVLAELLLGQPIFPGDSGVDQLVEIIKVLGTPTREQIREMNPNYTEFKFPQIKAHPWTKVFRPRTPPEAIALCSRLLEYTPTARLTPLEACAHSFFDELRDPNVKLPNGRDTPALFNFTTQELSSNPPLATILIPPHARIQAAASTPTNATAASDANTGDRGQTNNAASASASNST
Method: as §1

Hck(h) = Hck(h) (Homo sapiens, UniProt P08631)
Chain of Hck(h) (P08631 whole entry): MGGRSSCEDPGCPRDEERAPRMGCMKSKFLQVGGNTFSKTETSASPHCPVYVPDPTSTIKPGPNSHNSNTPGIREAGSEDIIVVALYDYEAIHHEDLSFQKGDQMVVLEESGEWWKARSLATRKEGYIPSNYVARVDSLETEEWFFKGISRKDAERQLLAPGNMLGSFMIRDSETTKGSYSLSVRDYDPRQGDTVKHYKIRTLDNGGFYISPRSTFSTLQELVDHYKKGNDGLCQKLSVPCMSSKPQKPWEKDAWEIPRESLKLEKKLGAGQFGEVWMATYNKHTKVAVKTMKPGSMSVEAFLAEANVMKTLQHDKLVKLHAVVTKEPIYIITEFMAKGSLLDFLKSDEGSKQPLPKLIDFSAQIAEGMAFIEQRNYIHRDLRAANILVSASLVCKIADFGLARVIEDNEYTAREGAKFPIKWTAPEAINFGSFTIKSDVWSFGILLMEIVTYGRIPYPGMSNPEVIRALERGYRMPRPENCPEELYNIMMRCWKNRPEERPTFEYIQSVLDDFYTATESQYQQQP
Method: as §1

Ros(h) = Ros(h) (Homo sapiens, UniProt P08922)
Method: as §1

CK1δ(h) = CK1δ(h) (Homo sapiens, UniProt P48730)
Method: as §1

Tie2(h) = Tie2(h) (Homo sapiens, UniProt Q02763)
Method: as §1

TrkA(h) = TrkA(h) (Homo sapiens, UniProt P04629)
Method: as §1

Ron(h) = Ron(h) (Homo sapiens, UniProt Q04912)
Method: as §1

JNK1α1(h) = JNK1α1(h) (Homo sapiens, UniProt P45983)
Method: as §1

PKD2(h) = PKD2(h) (Homo sapiens, UniProt Q9BZL6)
Method: as §1

PKCμ(h) = PKCμ(h) (Homo sapiens, UniProt Q15139)
Chain of PKCμ(h) (Q15139 whole entry): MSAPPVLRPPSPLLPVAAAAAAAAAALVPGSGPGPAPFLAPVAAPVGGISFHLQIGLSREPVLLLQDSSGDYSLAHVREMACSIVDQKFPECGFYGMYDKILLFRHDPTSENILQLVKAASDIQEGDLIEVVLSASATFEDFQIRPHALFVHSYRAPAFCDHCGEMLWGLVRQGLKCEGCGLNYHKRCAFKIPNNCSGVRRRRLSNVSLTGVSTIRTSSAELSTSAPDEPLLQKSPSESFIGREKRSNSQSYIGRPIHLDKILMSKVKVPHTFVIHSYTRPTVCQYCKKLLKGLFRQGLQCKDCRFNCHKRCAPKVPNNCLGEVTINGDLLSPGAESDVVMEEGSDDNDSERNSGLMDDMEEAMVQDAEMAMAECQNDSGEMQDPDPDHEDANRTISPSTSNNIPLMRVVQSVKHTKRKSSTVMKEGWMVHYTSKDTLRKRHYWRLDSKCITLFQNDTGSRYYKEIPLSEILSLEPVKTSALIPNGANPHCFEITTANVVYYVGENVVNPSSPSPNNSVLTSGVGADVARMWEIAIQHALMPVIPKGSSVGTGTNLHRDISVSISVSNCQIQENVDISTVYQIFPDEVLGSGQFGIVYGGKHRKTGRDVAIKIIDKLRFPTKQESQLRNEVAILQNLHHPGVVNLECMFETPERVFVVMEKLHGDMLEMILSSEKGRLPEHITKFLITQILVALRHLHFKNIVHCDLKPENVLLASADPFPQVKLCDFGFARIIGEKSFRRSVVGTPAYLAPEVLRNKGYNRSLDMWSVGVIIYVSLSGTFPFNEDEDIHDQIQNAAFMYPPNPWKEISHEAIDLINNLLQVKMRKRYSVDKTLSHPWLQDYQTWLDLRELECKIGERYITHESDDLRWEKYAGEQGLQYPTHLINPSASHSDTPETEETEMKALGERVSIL
Method: as §1

CK2(h) = CK2(h) (Homo sapiens, UniProt P68400)
Method: as §1

ROCK-I(h) = ROCK-I(h) (Homo sapiens, UniProt Q13464)
Method: as §1

cKit(D816V)(h) = cKit(D816V)(h) (Homo sapiens, UniProt P10721, D816V)
Chain of cKit(D816V)(h) (P10721 26-976 D816V): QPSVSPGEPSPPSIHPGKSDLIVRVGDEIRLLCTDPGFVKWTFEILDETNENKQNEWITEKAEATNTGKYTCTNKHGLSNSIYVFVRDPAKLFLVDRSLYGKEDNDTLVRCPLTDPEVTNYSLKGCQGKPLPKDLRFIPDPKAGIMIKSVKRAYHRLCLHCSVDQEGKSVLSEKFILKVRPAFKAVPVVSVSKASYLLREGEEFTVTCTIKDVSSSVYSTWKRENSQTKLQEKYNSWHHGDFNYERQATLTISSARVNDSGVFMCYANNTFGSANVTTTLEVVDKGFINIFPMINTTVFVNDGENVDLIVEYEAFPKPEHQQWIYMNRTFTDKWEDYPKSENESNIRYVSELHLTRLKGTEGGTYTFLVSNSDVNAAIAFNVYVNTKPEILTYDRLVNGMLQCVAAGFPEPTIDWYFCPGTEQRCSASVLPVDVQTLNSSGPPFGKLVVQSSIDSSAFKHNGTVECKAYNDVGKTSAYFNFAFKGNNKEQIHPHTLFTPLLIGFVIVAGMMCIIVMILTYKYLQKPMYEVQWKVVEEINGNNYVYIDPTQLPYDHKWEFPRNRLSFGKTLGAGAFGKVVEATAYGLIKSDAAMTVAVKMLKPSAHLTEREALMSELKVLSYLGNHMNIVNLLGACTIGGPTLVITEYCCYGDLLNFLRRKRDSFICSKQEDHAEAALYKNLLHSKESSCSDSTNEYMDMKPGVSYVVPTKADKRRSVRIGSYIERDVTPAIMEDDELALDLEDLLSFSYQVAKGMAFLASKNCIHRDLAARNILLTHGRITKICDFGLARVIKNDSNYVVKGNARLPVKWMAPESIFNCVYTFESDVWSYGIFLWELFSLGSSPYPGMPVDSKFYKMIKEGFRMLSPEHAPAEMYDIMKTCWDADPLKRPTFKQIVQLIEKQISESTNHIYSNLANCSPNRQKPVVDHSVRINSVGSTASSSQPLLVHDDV
Method: as §1

CDK3/cyclinE(h) = CDK3/cyclinE(h) (Homo sapiens, UniProt Q00526)
Method: as §1

JNK3(h) = JNK3(h) (Homo sapiens, UniProt P53779)
Method: as §1

CDK2/cyclinA(h) = CDK2/cyclinA(h) (Homo sapiens, UniProt P24941)
Method: as §1

BTK(h) = BTK(h) (Homo sapiens, UniProt Q06187)
Method: as §1

PRAK(h) = PRAK(h) (Homo sapiens, UniProt Q8IW41)
Chain of PRAK(h) (Q8IW41 whole entry): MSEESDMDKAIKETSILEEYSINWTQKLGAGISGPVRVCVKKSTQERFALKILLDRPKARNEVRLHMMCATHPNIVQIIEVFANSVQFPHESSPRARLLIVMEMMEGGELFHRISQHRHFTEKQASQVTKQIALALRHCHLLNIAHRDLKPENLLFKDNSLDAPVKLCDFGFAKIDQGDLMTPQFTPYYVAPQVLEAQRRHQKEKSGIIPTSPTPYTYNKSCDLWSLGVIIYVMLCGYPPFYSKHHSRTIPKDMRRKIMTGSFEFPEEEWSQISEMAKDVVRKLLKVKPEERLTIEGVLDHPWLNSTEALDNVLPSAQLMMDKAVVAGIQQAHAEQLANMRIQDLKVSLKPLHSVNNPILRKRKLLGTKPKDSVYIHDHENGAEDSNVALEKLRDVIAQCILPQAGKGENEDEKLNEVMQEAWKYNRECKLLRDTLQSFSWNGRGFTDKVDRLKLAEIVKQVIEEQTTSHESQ
Method: as §1

MAPK2(h) = MAPK2(h) (Homo sapiens, UniProt P28482)
Chain of MAPK2(h) (P28482 whole entry): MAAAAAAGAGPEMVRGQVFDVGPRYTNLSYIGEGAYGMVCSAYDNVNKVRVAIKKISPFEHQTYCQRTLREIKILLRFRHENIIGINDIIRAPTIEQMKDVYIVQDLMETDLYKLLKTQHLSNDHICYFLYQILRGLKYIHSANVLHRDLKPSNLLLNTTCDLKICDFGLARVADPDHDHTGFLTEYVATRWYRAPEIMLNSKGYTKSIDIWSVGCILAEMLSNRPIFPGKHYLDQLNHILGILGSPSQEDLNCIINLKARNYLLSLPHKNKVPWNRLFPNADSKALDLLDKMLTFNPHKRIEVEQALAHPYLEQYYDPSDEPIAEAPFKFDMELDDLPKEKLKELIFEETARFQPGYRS
Method: as §1

KDR = KDR (Homo sapiens, UniProt P35968)
Method: as §1

EphB2(h) = EphB2(h) (Homo sapiens, UniProt P29323)
Method: as §1

Pyk2(h) = Pyk2(h) (Homo sapiens, UniProt Q14289)
Method: as §1

Rsk1(h) = Rsk1(h) (Homo sapiens, UniProt Q15418)
Method: as §1

Met(h) = Met(h) (Homo sapiens, UniProt P08581)
Method: as §1

Question: Which remaining activity at 0.2 µM (Syk(h)) does the source give for `COc1cc(O)c2c(c1)[C@H]1O[C@@H]1C[C@H](O)[C@H](O)C(=O)/C=C\C[C@H](C)OC2=O` [Hypothemycin, hypothemycin] here?
Answer: 105%

Question: And the remaining activity at 0.2 µM (MINK(h))?
Answer: 88%

Question: What about the remaining activity at 0.2 µM (Rsk3(h)) of the same compound?
Answer: 94%

Question: And the remaining activity at 0.2 µM (NEK7(h))?
Answer: 98%

Question: What about the remaining activity at 0.2 µM (Abl(T315I)(h)) of the same compound?
Answer: 90%

Question: What about the remaining activity at 0.2 µM (ErbB4(h)) of the same compound?
Answer: 124%

Question: What about the remaining activity at 0.2 µM (Abl(h)) of the same compound?
Answer: 98%

Question: And the remaining activity at 0.2 µM (PKCα(h))?
Answer: 96%

Question: And the remaining activity at 0.2 µM (PDGFRβ(h); 0.2 μM)?
Answer: 73%

Question: And the remaining activity at 2 µM (PDGFRβ(h); 2.0 μM)?
Answer: 40%

Question: And the remaining activity at 0.2 µM (CDK2/cyclinE(h))?
Answer: 105%

Question: What about the remaining activity at 0.2 µM (PKA(h)) of the same compound?
Answer: 108%

Question: And the remaining activity at 0.2 µM (Arg(h))?
Answer: 98%

Question: What about the remaining activity at 0.2 µM (Fes(h)) of the same compound?
Answer: 92%

Question: And the remaining activity at 0.2 µM (GSK3β(h); 0.2 μM)?
Answer: 90%

Question: What about the remaining activity at 2 µM (GSK3β(h); 2.0 μM) of the same compound?
Answer: 40%

Question: What about the remaining activity at 0.2 µM (Hck(h); 0.2 μM) of the same compound?
Answer: 78%

Question: And the remaining activity at 2 µM (Hck(h); 2.0 μM)?
Answer: 91%

Question: What about the remaining activity at 0.2 µM (Ros(h)) of the same compound?
Answer: 97%

Question: What about the remaining activity at 0.2 µM (CK1δ(h)) of the same compound?
Answer: 105%

Question: And the remaining activity at 0.2 µM (Tie2(h))?
Answer: 93%

Question: What about the remaining activity at 0.2 µM (TrkA(h); 0.2 μM) of the same compound?
Answer: 22%

Question: And the remaining activity at 2 µM (TrkA(h); 2.0 μM)?
Answer: 1%

Question: And the remaining activity at 0.2 µM (Ron(h))?
Answer: 91%

Question: What about the remaining activity at 0.2 µM (JNK1α1(h)) of the same compound?
Answer: 97%

Question: And the remaining activity at 0.2 µM (PKD2(h); 0.2 μM)?
Answer: 31%

Question: And the remaining activity at 2 µM (PKD2(h); 2.0 μM)?
Answer: -2%

Question: And the remaining activity at 0.2 µM (PKCμ(h); 0.2 μM)?
Answer: 34%

Question: What about the remaining activity at 2 µM (PKCμ(h); 2.0 μM) of the same compound?
Answer: 6%

Question: What about the remaining activity at 0.2 µM (CK2(h)) of the same compound?
Answer: 99%

Question: What about the remaining activity at 0.2 µM (ROCK-I(h)) of the same compound?
Answer: 121%

Question: What about the remaining activity at 0.2 µM (cKit(D816V)(h); 0.2 μM) of the same compound?
Answer: 57%

Question: And the remaining activity at 2 µM (cKit(D816V)(h); 2.0 μM)?
Answer: 0%

Question: And the remaining activity at 0.2 µM (CDK3/cyclinE(h))?
Answer: 95%

Question: What about the remaining activity at 0.2 µM (JNK3(h)) of the same compound?
Answer: 76%

Question: And the remaining activity at 0.2 µM (CDK2/cyclinA(h); 0.2 μM)?
Answer: 634%

Question: And the remaining activity at 2 µM (CDK2/cyclinA(h); 2.0 μM)?
Answer: 106%

Question: What about the remaining activity at 0.2 µM (BTK(h)) of the same compound?
Answer: 104%

Question: What about the remaining activity at 0.2 µM (PRAK(h); 0.2 μM) of the same compound?
Answer: 20%

Question: And the remaining activity at 2 µM (PRAK(h); 2.0 μM)?
Answer: 1%

Question: And the remaining activity at 0.2 µM (MAPK2(h); 0.2 μM)?
Answer: 79%

Question: What about the remaining activity at 2 µM (MAPK2(h); 2.0 μM) of the same compound?
Answer: 5%

Question: What about the remaining activity at 2 µM (KDR) of the same compound?
Answer: 15%

Question: And the remaining activity at 0.2 µM (EphB2(h))?
Answer: 118%

Question: And the remaining activity at 0.2 µM (Pyk2(h))?
Answer: 84%

Question: And the remaining activity at 0.2 µM (Rsk1(h))?
Answer: 100%

Question: And the remaining activity at 0.2 µM (Met(h))?
Answer: 96%
